Where two headings read alike, the source gives them in different places.
Columns and labels:
PDE1C = details: PDE9 versus PDE1C, cited from earlier work
crystal structure = target: the molecule itself; experiment: crystal structure

| Molecule | selectivity against PDE1C (PDE1C) | selectivity against PDE1C (PDE1C; listed as PF-04447943) | binding result (crystal structure) |
| --- | --- | --- | --- |
| C[C@@H]1CN(Cc2ncccn2)C[C@H]1c1nc2c(cnn2C2CCOCC2)c(=O)[nH]1 [compound 9, 6-[(3S,4S)-4-methyl-1-(pyrimidin-2-ylmethyl)pyrrolidin-3-yl]-1-(tetrahydro-2H-pyran4-yl)-1,5-dihydro-4H-pyrazolo[3,4-d]pyrimidin-4-one] | 170 fold | about 170 fold |  |
| PDE9A2 catalytic domain (residues 181-506) (domain or fragment, UniProt O76083-2 181-506, looked up) PTYPKYLLSPETIEALRKPTFDVWLWEPNEMLSCLEHMYHDLGLVRDFSINPVTLRRWLFCVHDNYRNNPFHNFRHCFCVAQMMYSMVWLCSLQEKFSQTDILILMTAAICHDLDHPGYNNTYQINARTELAVRYNDISPLENHHCAVAFQILAEPECNIFSNIPPDGFKQIRQGMITLILATDMARHAEIMDSFKEKMENFDYSNEEHMTLLKMILIKCCDISNEVRPMEVAEPWVDCLLEEYFMQSDREKSEGLPVAPFMDRDKVTKATAQIGFIKFVLIPMFETVTKLFPMVEEIMLQPLWESRDRYEELKRIDDAMKELQKK |  |  | binds |

— PMC3469756 (Journal of medicinal chemistry, 2012)
